From patent US10111865B2 (priority 2015, dated 2018)
Like-named read-outs stand apart in the source and are kept apart here.

Legend:
[1] = Driving performance (real driving on the road) and cognitive/psychomotor test battery after evening or middle-of-the-night dosing (Example 3); type: in vivo, human; conditions: for effect on driving: driving test at 9 am; for effect on memory test, body sway, DSST or critical tracking: cognitive and psychomotor test battery before driving test
Excerpt: The study participants included healthy, male and female subjects between 21 and 45 years of age, with a valid drivers license for at least 3 years.
Following a cognitive and psychomotor test battery, the driving test started at 9 am and lasted for one hour.

[2] = type: in vivo, human
Excerpt: There was a washout of 4 days between each treatment period.
The study included healthy, male and female subjects between 18 and 45 years of age within 30% of ideal weight. The subjects in Part 1 of the study could be of either gender, but within Part 2 of the study there had to be at least 4 subjects of each gender.

[3] = Daytime performance after 5-hour sleep restriction, 4-night placebo-controlled study in healthy adults (Example 4); type: in vivo, human; conditions: 15 mg
Experimental: The study included a 2-night single-blind placebo run-in period, a 4-night double-blind treatment period during which sleep was restricted to 5 hours and a 2-night single-blind placebo run-out period. The study included healthy male and female volunteers 18 to <55 years of age.
2-night run-in period: All patients received placebo
2-night run-out period: All patients received placebo
The primary endpoints included observations based on the Multiple Sleep Latency Test (MSLT) and Slow Wave Sleep (SWS) assessment.

[4] = human, in vivo
[5] = human, in vivo; for residual effect on Choice Reaction Time / residual effect on Critical Flicker Fusion: po
[6] = three-month efficacy study, insomnia; cited from earlier work
[7] = middle-of-the-night administration (4 am; gaboxadol 15 mg, zolpidem 10 mg)

Cc1ccc(-c2nc3ccc(C)cn3c2CC(=O)N(C)C)cc1 [zolpidem]
effect on driving [1, 7]: numerically greater effect

Oc1noc2c1CCNC2 [gaboxadol, 4,5,6,7-tetrahydroisoxazolo [5,4-c]pyridine-3-ol]
serious adverse experiences ([2]; both parts of the study): no serious adverse experiences
tolerability ([2]; single dose intravenous 5 and 10 mg): generally well tolerated
tolerability ([2]; single dose oral 2.5 to 20 mg): generally well tolerated
effect on memory test, body sway, DSST or critical tracking [1]: no effect
tolerability ([1]; evening and middle-of-the-night dose 15 mg): well tolerated
effect on driving compared with blood alcohol ([1]; evening dose 15 mg): less than the effect observed at a 0.05% blood alcohol concentration
most frequent adverse events ([1]; evening treatment 15 mg): headache and somnolence
effect on driving [1, 7]: clinically relevant impairing effect
most frequent adverse events ([1]; middle-of-the-night treatment 15 mg): dizziness, nausea and somnolence
MSLT, average difference to placebo (longer) ([3]; last two Sleep Restriction days, p=0.047, 1 sided): 2.01 min
Karolinska Sleepiness Score (KSS), average difference to placebo (less) ([3]; last two Sleep Restriction days, p=0.058, 1 sided, LDA model): 0.68
SWS, average difference to placebo (longer) ([3]; last two Sleep Restriction nights, p<0.001, 1 sided): 20.53 min
biophysiological measures of stress (heart rate variability, cortisol levels, catecholamine levels, body temperature) vs placebo ([3]; sleep restriction): no differences
neurocognitive battery effect sizes (daytime performance) ([3]; sleep restriction): no strong evidence that gaboxadol improves daytime performance
Oral clearance (CL/F) compared with clearance after intravenous administration [4]: of similar magnitude
AUC0-inf, dependence on dose ([4]; iv): increased with increasing dose
Cmax, dependence on dose ([4]; iv): increased with increasing dose
other parameters (CL, t1/2, Vss, fe, and CLR), dependence on dose ([4]; iv): independent of dose
steady-state volume of distribution (Vss) ([4]; iv): moderate
systemic clearance (CL) ([4]; iv): moderate
other parameters (CL/F, tmax, t1/2, fe, and CLR), dependence on dose ([4]; po): independent of dose
AUC0-inf, dependence on dose ([4]; po, 20 mg): increased with increasing dose
Cmax, dependence on dose ([4]; po, 20 mg): increased with increasing dose
residual effects on other measurements (MSLT, DSST, Tracking, Memory tests, Body Sway, Leeds Sleep Evaluation Questionnaire) [5]: did not show any signs of residual effects
residual effect on Choice Reaction Time [5]: did not show residual effect
residual effect on Critical Flicker Fusion [5]: did not show residual effect
effects in sleep onset and sleep maintenance [6]: failed to show significant effects

CCN(CC)CCN1C(=O)CN=C(c2ccccc2F)c2cc(Cl)ccc21 [Flurazepam]
residual effect on Choice Reaction Time [5]: showed significant effect
residual effect on Critical Flicker Fusion [5]: showed significant effect

CN1CCN(C(=O)OC2c3nccnc3C(=O)N2c2ccc(Cl)cn2)CC1 (centres unmarked) [zopiclone]
effect on memory test, body sway, DSST or critical tracking [1]: had effect on several of these tests
effect on driving ([1]; evening dose (gaboxadol 15 mg, zopiclone 7.5 mg)): numerically greater effect
